Experiments:
Format in all cases: in vivo
[1] = Sensory panel evaluation of naringenin in water (Example 1); conditions: for Sweetness: sensory panelists
Protocol: Naringenin was evaluated in water as shown in Table B. Water used in all beverages described herein was specifically purified prior to use by processes well known in the art such as filtration, deionization, distillation, or reverse osmosis. Evaluation of the samples was performed using evaluation by sensory panelists. Beverage sampling comprised of taking an about 10 mL portion of the beverage into the mouth, holding the sample in the mouth, and rating the sweetness for each sample.

[2] = Taste evaluation of reduced-calorie beverage (Table C base formula) with added naringenin, compared to a full-calorie beverage (Example 2)
From the text: The base formula of Table C may provide about a 50% reduction in calories as compared to a typical full-calorie beverage.
For example, delocalization of sweetness, an attribute that relates to the beverage mouthfeel, was increased. […] Moreover, the aftertaste of naringenin-including samples became more syrupy, resulting in an aftertaste that was more similar to the full-calorie product. Improvements in sweetness and aftertaste were found for each of the above samples that included naringenin.

[3] = Taste evaluation of beverages with rebaudioside E, rebaudioside M or both, with and without naringenin (Example 3)
Protocol: In this example, samples were prepared to determine the taste attributes of reduced-calorie beverages including rebaudioside E, rebaudioside M, and combinations of rebaudiosides E and M, with and without naringenin. Beverages were prepared by adding rebaudiosides to the base solution shown in Table E. The tested concentrations of rebaudioside E, rebaudioside M, or a combination of both rebaudiosides, are shown in Table F. Beverages were then prepared by adding naringenin in various amounts, ranging from about 10 ppm to about 300 ppm, as shown in Table G. For example, naringenin was added to the base solution and each of the rebaudioside solutions shown in Table F. Further description of the beverages prepared in Example 3 is also shown in FIG. 2 of the drawings. Each of the prepared beverages was evaluated for changes or improvements for each of sweetness profile (upfront, middle, and back end sweetness), aftertaste (chemical, astringency), mouthfeel (cloying, thickness, thinness), and bitterness (relative to Rebaudioside A). For example, in a protocol to compare the bitterness of beverage samples to rebaudioside A, participants tasted each of an about 10 ml sample of the test beverage and an about 10 ml sample of a beverage including rebaudioside A (prepared in the same base solution shown in Table E). Relative bitterness was then immediately rated between the beverage samples.

[4] = Table C base formula with naringenin 15 to 300 ppm

For `O=C1C[C@@H](c2ccc(O)cc2)Oc2cc(O)cc(O)c21` [naringenin], which taste or flavor ([1]; in water, data of Table B (5 to 200 ppm)) is on record?
The taste or flavor was “does not elicit any taste or flavor”.

And the Sweetness ([1]; naringenin 5 ppm in water)?
Its Sweetness is “No perceptible sweetness”.

And the Sweetness ([1]; naringenin 10 ppm in water)?
Its Sweetness is “No perceptible sweetness”.

And the Sweetness ([1]; naringenin 20 ppm in water)?
Its Sweetness is “No perceptible sweetness”.

What about the Sweetness ([1]; naringenin 40 ppm in water) of the same compound?
Its Sweetness is “No perceptible sweetness”.

And the Sweetness ([1]; naringenin 80 ppm in water)?
Its Sweetness is “No perceptible sweetness”.

What about the Sweetness ([1]; naringenin 100 ppm in water) of the same compound?
The Sweetness was “No perceptible sweetness”.

What about the Sweetness ([1]; naringenin 200 ppm in water) of the same compound?
The Sweetness was “No perceptible sweetness”.

And the delocalization of sweetness [2, 4]?
Its delocalization of sweetness is “increased”.

What about the upfront sweetness profile [2, 4] of the same compound?
The upfront sweetness profile was “surprisingly increased”.

And the “syrup qualities of the beverages (mouthfeel)” value ([2]; Table C base formula with naringenin 15 to 300 ppm, vs full-calorie beverage)?
Its value is “increase syrup qualities”.

What about the aftertaste ([2]; Table C base formula with naringenin 15 to 300 ppm, vs full-calorie product) of the same compound?
Its aftertaste is “more syrupy”.

And the sweetness profile ([2]; Table C base formula, 15 ppm naringenin)?
The sweetness profile was “significantly improved”.

What about the sweetness profile ([2]; Table C base formula, about 30 ppm naringenin) of the same compound?
Its sweetness profile is “close to that of the full-calorie product”.

What about the “noticeable taste impressions or interference with flavors” value ([2]; Table C base formula, above 30 ppm up to about 300 ppm naringenin) of the same compound?
Its value is “did not provide any noticeable taste impressions”.

And the overall perception ([3]; 10, 50 or 70 ppm naringenin with combination of rebaudioside E and rebaudioside M, vs rebaudioside M alone or with naringenin)?
The overall perception was “perceived as better”.

And the mouthfeel ([3]; 10 to 70 ppm naringenin with rebaudioside E, compared to rebaudioside E base alone)?
Its mouthfeel is “increased”.

And the overall perception ([3]; 300 ppm naringenin, Table E base with rebaudioside E 300 ppm)?
The overall perception was “perceived as negative”.

What about the overall perception ([3]; 300 ppm naringenin, Table E base with rebaudioside M 300 ppm) of the same compound?
The overall perception was “perceived as negative”.

And the overall perception ([3]; 300 ppm naringenin, Table E base with rebaudiosides E and M 150 ppm each)?
Its overall perception is “perceived as negative”.

And the “suitability of naringenin level” value ([3]; 300 ppm naringenin, across all bases)?
The value was “too high”.

And the sweetness profiles ([3]; about 10 ppm to 70 ppm naringenin, Table E base with rebaudioside E 150 ppm and rebaudioside M 150 ppm)?
Its sweetness profiles is “significantly improved”.

And the “cloying mouthfeel and aftertaste” value ([3]; about 10 ppm to about 70 ppm naringenin, Table E base with rebaudiosides E and M 150 ppm each)?
Its value is “diminished”.

What about the mouthfeel ([3]; higher naringenin concentrations, particularly 300 ppm, Table E base with rebaudioside M 300 ppm, some participants) of the same compound?
The mouthfeel was “cloying mouthfeel”.

What about the “sweetness in the middle of the profile” value ([3]; naringenin added to Table E base with rebaudioside E 300 ppm) of the same compound?
The value was “increased”.

And the “taste character / mouthfeel” value ([3]; naringenin added to Table E base with rebaudioside M 300 ppm)?
The value was “sticky sweet”.

Which sweetness profile ([3]; Table E base with rebaudioside E 300 ppm, without naringenin, in comparison to sugar or rebaudioside M solutions) does the source give for `C=C1C[C@@]23CC[C@H]4[C@@](C)(CCC[C@@]4(C)C(=O)O[C@@H]4O[C@H](CO)[C@@H](O)[C@H](O)[C@H]4O[C@@H]4O[C@H](CO)[C@@H](O)[C@H](O)[C@H]4O)[C@@H]2CC[C@]1(O[C@@H]1O[C@H](CO)[C@@H](O)[C@H](O)[C@H]1O[C@@H]1O[C@H](CO)[C@@H](O)[C@H](O)[C@H]1O)C3` [rebaudioside E] here?
Its sweetness profile is “very flat sweetness profile and flat”.

And the mouthfeel and fullness ([3]; rebaudioside E alone without naringenin, compared to rebaudioside M)?
Its mouthfeel and fullness is “less mouthfeel and fullness”.

Reference: patent publication US11185096B2, “Sweet taste improving compositions including naringenin and steviol glycosides” (DR PEPPER/SEVEN UP, INC., priority 2014, dated 2021)
